Values quoted from earlier work, collected in PubChem BioAssay AID1259409 (Chemical Carcinogenesis Research Information System (CCRIS), 2018).

Tested on: rodent chemically induced tumor inhibition, incidence and multiplicity
Assay: CCRIS tumor inhibitor studies

SMILES: CC(C)(C)NC(=O)[C@H]1CC[C@H]2[C@@H]3CC[C@H]4NC(=O)C=C[C@]4(C)[C@H]3CC[C@]12C
- tumour outcome (control, treated, inhibition, significance) (Carcinogen: N-BUTYL-N-(4-HYDROXYBUTYL)NITROSAMINE, 3817-11-6, Dose [Inhibitor]: 0, 2 MG/KG 2/WK FOR 11 WK BEGINNING POST CARCINOGEN TREATMENT (STUDY DURATION: 21WK), Route [Inhibitor]: ORAL, Species: RAT, Strain/Sex: WISTAR/MALE, Target Tissue: Type of Lesion: URINARY BLADDER: CARCINOMA, Dose [Carcinogen]: 0.05% IN DRINKING WATER FOR 10 WK, Promoter: NONE USED): 15/17 (88%), 12/17 (71%), 19%, not significant
- tumour outcome (control, treated, inhibition, significance) (Carcinogen: N-BUTYL-N-(4-HYDROXYBUTYL)NITROSAMINE, 3817-11-6, Dose [Inhibitor]: 0, 2 MG/KG 2/WK FOR 13 WK BEGINNING POST CARCINOGEN TREATMENT (STUDY DURATION: 20WK), Route [Inhibitor]: ORAL, Species: RAT, Strain/Sex: WISTAR/MALE, Target Tissue: Type of Lesion: URINARY BLADDER: CARCINOMA, Dose [Carcinogen]: 0.05% IN DRINKING WATER FOR 7 WK, Promoter: NONE USED): 25/39 (64%), 9/20 (45%), 30%, not significant
- tumour outcome (control, treated, inhibition, significance) (Carcinogen: N-BUTYL-N-(4-HYDROXYBUTYL)NITROSAMINE, 3817-11-6, Dose [Inhibitor]: 0, 4 MG/KG 2/WK FOR 13 WK BEGINNING POST CARCINOGEN TREATMENT (STUDY DURATION: 20 WK), Route [Inhibitor]: ORAL, Species: RAT, Strain/Sex: WISTAR/MALE, Target Tissue: Type of Lesion: URINARY BLADDER: CARCINOMA, Dose [Carcinogen]: 0.05% IN DRINKING WATER FOR 7 WK, Promoter: NONE USED): 25/39 (64%), 9/20 (45%), 30%, not significant
- tumour outcome (control, treated, inhibition, significance) (Carcinogen: N-BUTYL-N-(4-HYDROXYBUTYL)NITROSAMINE, 3817-11-6, Dose [Inhibitor]: 0, 8 MG/KG 2/WK FOR 13 WK BEGINNING POST CARCINOGEN TREATMENT (STUDY DURATION: 20 WK), Route [Inhibitor]: ORAL, Species: RAT, Strain/Sex: WISTAR/MALE, Target Tissue: Type of Lesion: URINARY BLADDER : CARCINOMA, Dose [Carcinogen]: 0.05% IN DRINKING WATER FOR 7 WK, Promoter: NONE USED): 25/39 (64%), 8/20 (40%), 38%, not significant
- tumour outcome (control, treated, inhibition, significance) (Carcinogen: N-METHYL-N-NITROSOUREA, 684-93-5, Dose [Inhibitor]: 0.09 MG/200 G BW/D FOR 2 MO BEGINNING 9.5 MO POST-CARCINOGEN DOSE (STUDY DURATION: 11.5 MO), Route [Inhibitor]: GAVAGE, Species: RAT, Strain/Sex: WISTAR/MALE, Target Tissue: Type of Lesion: PROSTATE: ADENOCARCINOMA, Dose [Carcinogen]: 35 MG/KG BW ONCE AT INITIATION OF STUDY, Promoter: TESTOSTERONE PROPIONATE, 57-85-2): 9/14 (64%), 1/10 (10%), 84%, not determined

SMILES: CCCCCCCCC/C=C/C=C/C=C/C=C/C=C/C=C/C(=O)OCC
- tumour outcome (control, treated, inhibition, significance) (Carcinogen: AZOXYMETHANE, 25843-45-2, Dose [Inhibitor]: 0, 0.7 ML 2/WK FOR DURATION OF STUDY BEGINNING 1 D PRIOR TO FIRST CARCINOGEN DOSE (STUDY DURATION: 36 WK), Route [Inhibitor]: GAVAGE, Species: RAT, Strain/Sex: F344/MALE, Target Tissue: Type of Lesion: COLON/RECTUM: ADENOMA OR CARCINOMA, Dose [Carcinogen]: 15 MG/KG 1/WK FOR 2 WK, Promoter: NONE USED): 20/40 (50%), 15/33 (45%), 10%, not significant

SMILES: O=S(=O)([O-])[O-].O=S(=O)([O-])[O-].O=S(=O)([O-])[O-].[Mo]
- tumour outcome (control, treated, inhibition, significance) (Carcinogen: N-METHYL-N-BENZYLNITROSAMINE, 937-40-6, Dose [Inhibitor]: 0, 2 PPM IN DIET FOR 1 WK PRIOR TO CARCINOGEN (STUDY DURATION: 25 WK), Route [Inhibitor]: ORAL, Species: RAT, Strain/Sex: F344/MALE, Target Tissue: Type of Lesion: ESOPHAGUS: CARCINOMA, Dose [Carcinogen]: 2.5 MG/KG 1/WK FOR 20 WK): 30/41 (73%), 20/45 (44%), 40%, p<0.01

SMILES: c1ccc2c(c1)c1cccc3ccc4cccc2c4c31
- tumour outcome (control, treated, inhibition, significance) (Carcinogen: BENZO[A]PYRENE, 50-32-8, Dose [Inhibitor]: 5 UG IN 0.1 ML ACETONE 3/WK ADMINISTERED SIMULTANEOUSLY WITH CARCINOGEN FOR DURATION OF STUDY (STUDY DURATION: 368 D), Route [Inhibitor]: DERMAL, Species: MOUSE, Strain/Sex: ICR/FEMALE, Target Tissue: Type of Lesion: SKIN: PAPILLOMA, Dose [Carcinogen]: 5 UG IN 0.1 ML ACETONE 3/WK FOR DURATION OF STUDY, Promoter: NONE USED): 14/50 (28%), 24/50 (48%), -71%, not calculated
- tumour outcome (control, treated, inhibition, significance) (Carcinogen: BENZO[A]PYRENE, 50-32-8, Dose [Inhibitor]: 5 UG IN 0.1 ML ACETONE 3/WK ADMINISTERED SIMULTANEOUSLY WITH CARCINOGEN FOR DURATION OF STUDY (STUDY DURATION: 368 D), Route [Inhibitor]: DERMAL, Species: MOUSE, Strain/Sex: ICR/FEMALE, Target Tissue: Type of Lesion: SKIN: SQUAMOUS CARCINOMA, Dose [Carcinogen]: 5 UG IN 0.1 ML ACETONE 3/WK FOR DURATION OF STUDY, Promoter: NONE USED): 10/50 (20%), 9/50 (18%), 10%, not calculated
- tumour outcome (control, treated, inhibition, significance) (Carcinogen: BENZO[A]PYRENE, 50-32-8, Dose [Inhibitor]: 15 UG IN 0.1 ML ACETONE 3/WK ADMINISTERED SIMULTANEOUSLY WITH CARCINOGEN FOR DURATION OF STUDY (STUDY DURATION: 368 D), Route [Inhibitor]: DERMAL, Species: MOUSE, Strain/Sex: ICR/FEMALE, Target Tissue: Type of Lesion: SKIN: PAPILLOMA, Dose [Carcinogen]: 5 UG IN 0.1 ML ACETONE 3/WK FOR DURATION OF STUDY, Promoter: NONE USED): 14/50 (28%), 33/50 (66%), -136%, not calculated
- tumour outcome (control, treated, inhibition, significance) (Carcinogen: BENZO[A]PYRENE, 50-32-8, Dose [Inhibitor]: 15 UG IN 0.1 ML ACETONE 3/WK ADMINISTERED SIMULTANEOUSLY WITH CARCINOGEN FOR DURATION OF STUDY (STUDY DURATION: 368 D), Route [Inhibitor]: DERMAL, Species: MOUSE, Strain/Sex: ICR/FEMALE, Target Tissue: Type of Lesion: SKIN: SQUAMOUS CARCINOMA, Dose [Carcinogen]: 5 UG IN 0.1 ML ACETONE 3/WK FOR DURATION OF STUDY, Promoter: NONE USED): 10/50 (20%), 27/50 (54%), -170%, not calculated

SMILES: Cc1ccc(Cl)c(Nc2ccccc2C(=O)O)c1Cl
- tumour outcome (control, treated, inhibition, significance) (Carcinogen: 1,2-DIMETHYLHYDRAZINE DIHYDROCHLORIDE, 306-37-6, Dose [Inhibitor]: 50 MG/L TAP WATER DAILY FOR 32 WK STARTING SIMULTANEOUSLY WITH CARCINOGEN TREATMENT (STUDY DURATION: 32 WK), Route [Inhibitor]: ORAL, Species: RAT, Strain/Sex: SPRAGUE-DAWLEY/MALE, Target Tissue: Type of Lesion: LARGE INTESTINE: TUMOR, Dose [Carcinogen]: 20 MG/KG BW WEEKLY FOR 20 WK, Promoter: NONE USED): 88%, 90%, -2%, not significant
- tumour outcome (control, treated, inhibition, significance) (Carcinogen: 1,2-DIMETHYLHYDRAZINE DIHYDROCHLORIDE, 306-37-6, Dose [Inhibitor]: 50 MG/L TAP WATER DAILY FOR 32 WK STARTING SIMULTANEOUSLY WITH CARCINOGEN TREATMENT (STUDY DURATION: 32 WK), Route [Inhibitor]: ORAL, Species: RAT, Strain/Sex: SPRAGUE-DAWLEY/MALE, Target Tissue: Type of Lesion: SMALL INTESTINE: TUMOR, Dose [Carcinogen]: 20 MG/KG BW WEEKLY FOR 20 WK, Promoter: NONE USED): 46%, 35%, 24%, not significant

SMILES: Cc1ncc(CO)c(CO)c1O
- tumour outcome (control, treated, inhibition, significance) (Carcinogen: 7,12-DIMETHYLBENZ[A]ANTHRACENE, 57-97-6, Dose [Inhibitor]: 0.04% IN DRINKING WATER DAILY STARTING 4 WK BEFORE CARCINOGEN TREATMENT AND CONTINUING FOR DURATION OF STUDY (STUDY DURA, Route [Inhibitor]: ORAL, Species: MOUSE, Strain/Sex: 101/MALE, FEMALE, Target Tissue: Type of Lesion: SKIN: PAPILLOMA, Dose [Carcinogen]: 225 UG IN 0.15 ML ACETONE ONCE, Promoter: CROTON OIL, 8001-28-3): 17/19 (89%), 17/18 (94%), -6%, not calculated
- tumour outcome (control, treated, inhibition, significance) (Carcinogen: HYDRAZINE SULFATE, 10034-93-2, Dose [Inhibitor]: 1.1 MG/D IN DIET STARTING 1 WK PRIOR TO ADMINISTRATION OF CARCINOGEN UNTIL END OF EXPERIMENT (STUDY DURATION: APPROXIMAT, Route [Inhibitor]: ORAL, Species: MOUSE, Strain/Sex: SWISS/MALE, FEMALE, Target Tissue: Type of Lesion: LUNG: TUMORS, Dose [Carcinogen]: 1.1 MG/D 5 D/WK UNTIL 12 MO OF AGE, Promoter: NONE USED): 22/29 (76%), 26/33 (79%), -4%, not significant
- tumour outcome (control, treated, inhibition, significance) (Carcinogen: ISONIAZID, 54-85-3, Dose [Inhibitor]: 1.1 MG/MOUSE/D SIMULTANEOUSLY WITH CARCINOGEN 6 D/WK (STUDY DURATION: 24 MO), Route [Inhibitor]: INTRAGASTRIC, Species: MOUSE, Strain/Sex: SWISS/MALE, Target Tissue: Type of Lesion: LUNG: TUMOR, Dose [Carcinogen]: 1.1 MG/MOUSE/D SIMULTANEOUSLY WITH AGENT, Promoter: NONE USED): 15/29 (52%), 2/12 (17%), 67%, p<0.1

SMILES: Nc1ncn([C@H]2C[C@H](O)[C@@H](CO)O2)c(=O)n1
- tumour outcome (control, treated, inhibition, significance) (Carcinogen: 4-(METHYLNITROSAMINO)-1-(3-PYRIDIYL)-1-BUTANONE, 64091-91-4, Dose [Inhibitor]: 0, 1 MG/KG 3/WK FOR 12 WK THEN 0, 0.5 MG/KG FOR 12 WK BEGINNING 1 WK PRIOR TO CARCINOGEN TREATMENT (STUDY DURATION: 24 W, Dose [Inhibitor]: 0, 1 MG/KG 3/WK FOR 12 WK THEN 0, 0.5 MG/KG FOR 12 WK BEGINNING 1 WK PRIOR TO CARCINOGEN TREATMENT (STUDY DURATION: 24 W, Route [Inhibitor]: INTRAPERITONEAL, Species: MOUSE, Strain/Sex: C3AF1/MALE, Target Tissue: Type of Lesion: LUNG: TUMOR, Dose [Carcinogen]: 3.9 MG/MOUSE (TOTAL DOSE) ADMINISTERED IN TWO WEEKLY DOSES OF 1.9 TO 2 MG, Promoter: NONE USED): 100%, 77%, 23%, not significant
